Assay results as given in patent publication US6737383B1, “Herbicidal oxadiazolidines” (priority 1999, dated 2004).

Key:
morningglory = experiment: Test B pre/postemergence morningglory; assay type: in vivo, Ipomoea hederacea
How it was run: (§1)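 Response is a visual 0-to-10 score relative to untreated plants, where 0 means no effect and 10 means complete control, taken twelve to sixteen days after application. Treatments went onto soil at planting and onto foliage of 1- to 4-leaf plants, using a surfactant-containing non-phytotoxic solvent.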

bedstraw = experiment: Test B pre/postemergence bedstraw; assay type: in vivo, Galium aparine
How it was run: as §1

blackgrass = experiment: Test B pre/postemergence blackgrass; assay type: in vivo, Alopecurus myosuroides
How it was run: as §1

pigweed = experiment: Test B pre/postemergence pigweed; assay type: in vivo, Amaranthus retroflexus
How it was run: as §1

wild oat = experiment: Test B pre/postemergence wild oat; assay type: in vivo, Avena fatua
How it was run: as §1

wheat = experiment: Test B pre/postemergence wheat; assay type: in vivo, Triticum aestivum
How it was run: as §1

soybean = experiment: Test B pre/postemergence soybean; assay type: in vivo, Glycine max
How it was run: as §1

cocklebur = experiment: Test B pre/postemergence cocklebur; assay type: in vivo, Xanthium strumarium
How it was run: as §1

purple nutsedge = experiment: Test B pre/postemergence purple nutsedge; assay type: in vivo, Cyperus rotundus
How it was run: as §1

rape = experiment: Test B pre/postemergence rape; assay type: in vivo, Brassica napus
How it was run: as §1

surinam grass = experiment: Test B pre/postemergence surinam grass; assay type: in vivo, Brachiaria decumbens
How it was run: as §1

sugar beet = experiment: Test B pre/postemergence sugar beet; assay type: in vivo, Beta vulgaris
How it was run: as §1

giant foxtail = experiment: Test B pre/postemergence giant foxtail; assay type: in vivo, Setaria faberii
How it was run: as §1

crabgrass = experiment: Test B pre/postemergence crabgrass; assay type: in vivo, Digitaria sanguinalis
How it was run: as §1

corn = experiment: Test B pre/postemergence corn; assay type: in vivo, Zea mays
How it was run: as §1

velvetleaf = experiment: Test B pre/postemergence velvetleaf; assay type: in vivo, Abutilon theophrasti
How it was run: as §1

[1] = Postemergence, Rate 125 g/ha, scale of 0 to 10 where 0 is no effect and 10 is complete control
[2] = Preemergence, Rate 62 g/ha, scale of 0 to 10 where 0 is no effect and 10 is complete control
[3] = Preemergence, Rate 125 g/ha, 0 is no effect, 10 is complete control
[4] = Preemergence, Rate 250 g/ha, scale 0 to 10, 0 is no effect, 10 is complete control
[5] = Preemergence, Rate 500 g/ha, scale 0 to 10 (0 no effect, 10 complete control)
[6] = Rate 62 g/ha, Postemergence, scale of 0 to 10 where 0 is no effect and 10 is complete control
[7] = Rate 250 g/ha, Postemergence, scale 0 to 10, 0 is no effect, 10 is complete control
[8] = Rate 500 g/ha, Postemergence, scale 0 to 10

## CC(C)N(C(=O)n1oc(=O)n([C@H](C)c2ccccc2)c1=O)c1ccc(Cl)cc1 [Compound 178]
morningglory; [1]
  Morningglory plant response rating: 2
morningglory; [2]
  Morningglory plant response rating: 0
morningglory; [3]
  Morningglory plant response rating (0 to 10 scale): 0
morningglory; [4]
  Morningglory plant response rating: 0
morningglory; [5]
  Morningglory plant response rating: 0
morningglory; [6]
  Morningglory plant response rating: 2
morningglory; [7]
  Plant response rating, Morningglory: 2
morningglory; [8]
  Morningglory plant response rating: 3
bedstraw; [1]
  Bedstraw plant response rating: 0
bedstraw; [2]
  Bedstraw plant response rating: 0
bedstraw; [3]
  Bedstraw plant response rating (0 to 10 scale): 0
bedstraw; [4]
  Bedstraw plant response rating: 0
bedstraw; [5]
  Bedstraw plant response rating: 0
bedstraw; [6]
  Bedstraw plant response rating: 0
bedstraw; [7]
  Plant response rating, Bedstraw: 0
bedstraw; [8]
  Bedstraw plant response rating: 0
blackgrass; [1]
  Blackgrass plant response rating: 0
blackgrass; [2]
  Blackgrass plant response rating: 0
blackgrass; [3]
  Blackgrass plant response rating (0 to 10 scale): 0
blackgrass; [4]
  Blackgrass plant response rating: 0
blackgrass; [5]
  Blackgrass plant response rating: 3
blackgrass; [6]
  Blackgrass plant response rating: 0
blackgrass; [7]
  Plant response rating, Blackgrass: 0
pigweed; [1]
  Redroot pigweed plant response rating: 7
pigweed; [2]
  Redroot pigweed plant response rating: 0
pigweed; [3]
  Redroot pigweed plant response rating (0 to 10 scale): 0
pigweed; [4]
  Redroot pigweed plant response rating: 6
pigweed; [5]
  Redroot pigweed plant response rating: 10
pigweed; [6]
  Redroot pigweed plant response rating: 0
pigweed; [8]
  Redroot pigweed plant response rating: 7
Wild oat; [2]
  Wild oats plant response rating: 0
Wild oat; [3]
  Wild oats plant response rating (0 to 10 scale): 0
Wild oat; [4]
  Wild oats plant response rating: 0
Wild oat; [5]
  Wild oats plant response rating: 3
Wild oat; [7]
  Plant response rating, Wild oats: 0
Wild oat; [8]
  Wild oats plant response rating: 0
wheat; [2]
  Wheat plant response rating: 0
wheat; [3]
  Wheat plant response rating (0 to 10 scale): 0
wheat; [4]
  Wheat plant response rating: 0
wheat; [5]
  Wheat plant response rating: 0
wheat; [7]
  Plant response rating, Wheat: 0
wheat; [8]
  Wheat plant response rating: 2
soybean; [1]
  Soybean plant response rating: 1
soybean; [2]
  Soybean plant response rating: 0
soybean; [3]
  Soybean plant response rating (0 to 10 scale): 0
soybean; [4]
  Soybean plant response rating: 0
soybean; [5]
  Soybean plant response rating: 0
soybean; [6]
  Soybean plant response rating: 1
soybean; [7]
  Plant response rating, Soybean: 2
soybean; [8]
  Soybean plant response rating: 2
cocklebur; [1]
  Cocklebur plant response rating: 0
cocklebur; [2]
  Cocklebur plant response rating: 0
cocklebur; [3]
  Cocklebur plant response rating (0 to 10 scale): 0
cocklebur; [4]
  Cocklebur plant response rating: 0
cocklebur; [5]
  Cocklebur plant response rating: 0
cocklebur; [6]
  Cocklebur plant response rating: 0
cocklebur; [7]
  Plant response rating, Cocklebur: 0
cocklebur; [8]
  Cocklebur plant response rating: 0
Purple nutsedge; [1]
  Nutsedge plant response rating: 0
Purple nutsedge; [2]
  Nutsedge plant response rating: 0
Purple nutsedge; [3]
  Nutsedge plant response rating (0 to 10 scale): 0
Purple nutsedge; [4]
  Nutsedge plant response rating: 0
Purple nutsedge; [5]
  Nutsedge plant response rating: 0
Purple nutsedge; [6]
  Nutsedge plant response rating: 0
Purple nutsedge; [7]
  Plant response rating, Nutsedge: 0
Purple nutsedge; [8]
  Nutsedge plant response rating: 0
rape; [1]
  Rape plant response rating: 0
rape; [2]
  Rape plant response rating: 0
rape; [3]
  Rape plant response rating (0 to 10 scale): 0
rape; [4]
  Rape plant response rating: 0
rape; [5]
  Rape plant response rating: 0
rape; [6]
  Rape plant response rating: 0
rape; [7]
  Plant response rating, Rape: 0
rape; [8]
  Rape plant response rating: 0
Surinam grass; [1]
  B. signalgrass plant response rating: 0
Surinam grass; [2]
  B. signalgrass plant response rating: 6
Surinam grass; [3]
  B. signalgrass plant response rating (0 to 10 scale): 7
Surinam grass; [4]
  B. signalgrass plant response rating: 8
Surinam grass; [5]
  B. signalgrass plant response rating: 9
Surinam grass; [6]
  B. signalgrass plant response rating: 0
Surinam grass; [7]
  Plant response rating, B. signalgrass: 0
Surinam grass; Rate 500 g/ha, Postemergence, scale 0 to 10, 0 no effect, 10 complete control
  B. signalgrass plant response rating: 2
Sugar beet; [1]
  Sugarbeets plant response rating: 0
Sugar beet; [2]
  Sugarbeets plant response rating: 0
Sugar beet; [3]
  Sugarbeets plant response rating (0 to 10 scale): 0
Sugar beet; [4]
  Sugarbeets plant response rating: 0
Sugar beet; [5]
  Sugarbeets plant response rating: 0
Sugar beet; [6]
  Sugarbeets plant response rating: 0
Sugar beet; [7]
  Plant response rating, Sugarbeets: 0
Sugar beet; [8]
  Sugarbeets plant response rating: 0
Giant foxtail; [1]
  Giant foxtail plant response rating: 0
Giant foxtail; [2]
  Giant foxtail plant response rating: 4
Giant foxtail; [3]
  Giant foxtail plant response rating (0 to 10 scale): 4
Giant foxtail; [4]
  Giant foxtail plant response rating: 8
Giant foxtail; [5]
  Giant foxtail plant response rating: 9
Giant foxtail; [6]
  Giant foxtail plant response rating: 0
Giant foxtail; [7]
  Plant response rating, Giant foxtail: 0
Giant foxtail; [8]
  Giant foxtail plant response rating: 2
crabgrass; [1]
  Crabgrass plant response rating: 0
crabgrass; [2]
  Crabgrass plant response rating: 0
crabgrass; [3]
  Crabgrass plant response rating (0 to 10 scale): 2
crabgrass; [4]
  Crabgrass plant response rating: 8
crabgrass; [5]
  Crabgrass plant response rating: 9
crabgrass; [6]
  Crabgrass plant response rating: 0
crabgrass; [7]
  Plant response rating, Crabgrass: 0
crabgrass; [8]
  Crabgrass plant response rating: 2
corn; [1]
  Corn plant response rating: 0
corn; [2]
  Corn plant response rating: 0
corn; [3]
  Corn plant response rating (0 to 10 scale): 0
corn; [4]
  Corn plant response rating: 0
corn; [5]
  Corn plant response rating: 0
corn; [6]
  Corn plant response rating: 0
corn; [7]
  Plant response rating, Corn: 0
corn; [8]
  Corn plant response rating: 0
velvetleaf; [2]
  Velvetleaf plant response rating: 0
velvetleaf; [3]
  Velvetleaf plant response rating (0 to 10 scale): 0
velvetleaf; [4]
  Velvetleaf plant response rating: 0
velvetleaf; [5]
  Velvetleaf plant response rating: 0
velvetleaf; [7]
  Plant response rating, Velvetleaf: 0
velvetleaf; [8]
  Velvetleaf plant response rating: 0
